molecular target: Endothelin-converting enzyme 1 (Cavia porcellus); assay: In vitro inhibition of phosphoramidon-sensitive membrane bound zinc metalloprotease Endothelin-converting enzyme from partially purified guinea pig lungs

Structure (SMILES) | IC50 [nM]
CC(=O)N[C@@H](Cc1ccccc1)P(=O)(O)CC1(C(=O)N[C@@H](Cc2c[nH]c3ccccc23)C(=O)O)CCCC1 [(S)-2-({1-[((R)-1-Acetylamino-2-phenyl-ethyl)-hydroxy-phosphinoylmethyl]-cyclopentanecarbonyl}-amino)-3-(1H-indol-3-yl)-propionic acid] | 600
O=C(N[C@@H](Cc1ccccc1)P(=O)(O)CC1(C(=O)N[C@@H](Cc2c[nH]c3ccccc23)C(=O)O)CCCC1)c1ccccc1 [(S)-2-({1-[((R)-1-Benzoylamino-2-phenyl-ethyl)-hydroxy-phosphinoylmethyl]-cyclopentanecarbonyl}-amino)-3-(1H-indol-3-yl)-propionic acid] | 250
O=C(N[C@@H](Cc1ccccc1)P(=O)(O)CC1(C(=O)N[C@@H](Cc2c[nH]c3ccccc23)C(=O)O)CCCC1)OCc1ccccc1 [(S)-2-({1-[((R)-1-Benzyloxycarbonylamino-2-phenyl-ethyl)-hydroxy-phosphinoylmethyl]-cyclopentanecarbonyl}-amino)-3-(1H-indol-3-yl)-propionic acid] | 190
O=C(N[C@@H](Cc1ccccc1)P(=O)(O)CC1(C(=O)N[C@@H](Cc2ccc(O)cc2)C(=O)O)CCCC1)OCc1ccccc1 [(S)-2-({1-[((R)-1-Benzyloxycarbonylamino-2-phenyl-ethyl)-hydroxy-phosphinoylmethyl]-cyclopentanecarbonyl}-amino)-3-(4-hydroxy-phenyl)-propionic acid] | 120
NC(=O)C[C@H](NC(=O)C1(CP(=O)(O)[C@H](Cc2ccccc2)NC(=O)OCc2ccccc2)CCCC1)C(=O)O [(S)-2-({1-[((R)-1-Benzyloxycarbonylamino-2-phenyl-ethyl)-hydroxy-phosphinoylmethyl]-cyclopentanecarbonyl}-amino)-succinamic acid] | > 1000
O=C(N[C@H](Cc1ccccc1)P(=O)(O)CC1(C(=O)N[C@@H](Cc2c[nH]c3ccccc23)C(=O)O)CCCC1)OCc1ccccc1 [(S)-2-({1-[((S)-1-Benzyloxycarbonylamino-2-phenyl-ethyl)-hydroxy-phosphinoylmethyl]-cyclopentanecarbonyl}-amino)-3-(1H-indol-3-yl)-propionic acid] | > 10000
COc1ccc(C(=O)N[C@@H](Cc2ccccc2)P(=O)(O)CC2(C(=O)N[C@@H](Cc3c[nH]c4ccccc34)C(=O)O)CCCC2)cc1 [(S)-2-[(1-{Hydroxy-[(R)-1-(4-methoxy-benzoylamino)-2-phenyl-ethyl]-phosphinoylmethyl}-cyclopentanecarbonyl)-amino]-3-(1H-indol-3-yl)-propionic acid] | 160
CC(C)(C)C(=O)N[C@@H](Cc1ccccc1)P(=O)(O)CC1(C(=O)N[C@@H](Cc2c[nH]c3ccccc23)C(=O)O)CCCC1 [(S)-2-[(1-{[(R)-1-(2,2-Dimethyl-propionylamino)-2-phenyl-ethyl]-hydroxy-phosphinoylmethyl}-cyclopentanecarbonyl)-amino]-3-(1H-indol-3-yl)-propionic acid] | 550
NCc1ccc(C(=O)N[C@@H](Cc2ccccc2)P(=O)(O)CC2(C(=O)N[C@@H](Cc3c[nH]c4ccccc34)C(=O)O)CCCC2)cc1 [(S)-2-[(1-{[(R)-1-(4-Aminomethyl-benzoylamino)-2-phenyl-ethyl]-hydroxy-phosphinoylmethyl}-cyclopentanecarbonyl)-amino]-3-(1H-indol-3-yl)-propionic acid] | 90
CC(C)C[C@H](NP(=O)(O)O)C(=O)N[C@@H](Cc1c[nH]c2ccccc12)C(=O)O [(S)-3-(1H-Indol-3-yl)-2-((S)-4-methyl-2-phosphonoamino-pentanoylamino)-propionic acid] | 1500
